Patent US9872912B2, “Method for treating pancreatic cancer” (CHINA MEDICAL UNIVERSITY, priority 2014, dated 2018)
Several values for one entry are separate records, joined by “and”; a condition that tells them apart may be missing. Equal entries are not always repeated.

Columns and labels:
[1] = test system: PACA-2; experiment: MTT cell survival rate, PACA-2; assay type: cell-based; conditions: Homo sapiens, PACA-2, 24 hours, read-out: IC50 (concentration of 50% inhibition)
Method: (§1) MTT (3-[4,5-dimethylthiahiazo-2-yl]-2,4-dipheny-tetrazolium bromide) was used to determine if the cell survival rate of different pancreatic cancer cell lines will be influenced when being treated with (Z)-butylidenephthalide. Human pancreatic cancer cell lines (3×10^3 cells/well), PANC-1 and PACA-2, were cultured in a 96-well micro-culture plate over night. Different concentrations of (Z)-butylidenephthalide (0 μg/ml, 10 μg/ml, 25 μg/ml, 50 μg/ml, 75 μg/ml, or 100 μg/ml) or (E)-butylidenephthalide (0 μg/ml, 50 μg/ml, 100 μg/ml, 200 μg/ml, 400 μg/ml, or 800 μg/ml), or 50 μM gemcitabine (a traditional medicine for treating pancreatic cancer, as a control group) were added into each well of the 96-well micro-culture plate along the inner wall, and cultured for 24 hours. The medium was removed, and then a medium containing 500 μg/ml MTT (200 μl) was added and cultured for 4 hours. The medium was removed, and then 200 μl of DMSO was added into the plate. The absorbance of the sample in each well was measured by a spectrophotometer at 570 nm wavelength. The data was calculated to determine the survival rate and IC50 (concentration of 50% inhibition) of each pancreatic cancer cell line treated with (Z)-butylidenephthalide and (E)-butylidenephthalide. The results are shown in FIG. 1A ((E)-butylidenephthalide) and FIG. 1B ((Z)-butylidenephthalide).

[2] = test system: PANC-1; experiment: MTT cell survival rate, PANC-1; assay type: cell-based; conditions: Homo sapiens, PANC-1, 24 hours, read-out: IC50 (concentration of 50% inhibition)
Method: as §1

[3] = test system: gene expression levels of NOR-1, Nurr1, and Nur77 in PANC-1; experiment: RT-PCR of apoptosis-related gene expression, PANC-1; assay type: cell-based, Human
Method: (§2) In this experiment, pancreatic cancer cell lines, PANC-1 and PACA-2, were treated with 100 μg/ml Z-BP for 0, 1, 3, 6, or 24 hours, and then, analyzed by reverse transcriptase-polymerase chain reaction (RT-PCR) (FIG. 6A) to analyze the effects of Z-BP on the gene expression levels of NOR-1, Nurr1, and Nur77 in the pancreatic cancer cell line. In addition, pancreatic cancer cell lines, PANC-1 and PACA-2, were treated with different concentrations of Z-BP for 3 hours, and then, analyzed by RT-PCR (FIG. 6B). The Glyceraldehyde 3-phosphate dehydrogenase (GAPDH) was used as the control group.

[4] = test system: Nurr1 RNA in PACA-2; experiment: Micro RNA interference test, RT-PCR of Nurr1 RNA in PACA-2; assay type: cell-based, human; conditions: PACA-2, 133 μM Z-BP
Method: The RNA expression of Nurr1 in the human pancreatic cancer cell line, PACA-2, was inhibited by Micro RNA interference technology. The cells were treated with 133 μM Z-BP. Then, the cells were analyzed by RT-PCR to detect the changes in the expression of Nurr1 RNA in the cells. As the results shown in FIG. 7A, when PACA-2 cells were treated with 50 nM Nurr1 micro RNA, about 50% of the Nurr1 induced by Z-BP was inhibited.

[5] = test system: PACA-2; experiment: Micro RNA interference test, cellular survival rate of PACA-2; assay type: cell-based, human; conditions: PACA-2, 133 μM Z-BP
Method: Human pancreatic cancer cell lines, PACA-2, was cultured with p(CPP-SA)-Z-BP comprising 0 w % (as a control group), 17.5 w %, or 25 w % (Z)-butylidenephthalide, respectively, for 24 hours, and then the tumor cell morphology and cellular survival rate were observed.
In addition, the human pancreatic cancer cell line, PACA-2, was treated with 10 nM or 50 nM of Nurr1 micro RNA, and then treated with 133 μM Z-BP. Then, the cellular survival rate was observed using the same method as described in Example 4.

[6] = test system: Nur77 gene pathway-related and apoptosis-related proteins in PACA-2; experiment: Western blotting of Nur77 pathway-related and apoptosis-related proteins in PACA-2; assay type: cell-based, Human
Method: Human pancreatic cancer cell line, PACA-2, […], and then the expression levels of the Nur77 gene involved pathway-related proteins were analyzed by Western blotting, including Pan-PKC, AKT, ERK, and JNK (FIG. 8A). In addition, the expression levels of apoptosis-related proteins were also analyzed, including poly(ADP-ribose) polymerase (PARP), cleaved poly(ADP-ribose) polymerase (cPARP), caspase-3 (FIG. 8B). β-actin was used as the control group.

[7] = test system: gene expression levels of NOR-1, Nurr1, and Nur77 in PACA-2; experiment: RT-PCR of apoptosis-related gene expression, PACA-2; assay type: cell-based, Human
Method: as §2

[8] = PANC-1, 100 μg/ml Z-BP, 1 to 3 hours
[9] = PACA-2, Z-BP for 24 hours or 48 hours
[10] = PACA-2, 100 μg/ml Z-BP, 1 to 3 hours

| SMILES | IC50 [1] | IC50 [2] | mRNA expression level of NOR-1 [3, 8] | mRNA expression level of Nurr1 [3, 8] | mRNA expression level of Nurr1 ([3]; PANC-1, different concentrations of Z-BP, 3 hours) | expression of Nurr1 [4] | cellular survival rate of PACA-2 cells [5] | expression level of phospho-AKT (Pi-AKT) ([6]; PACA-2, Z-BP for 180 minutes) | expression level of phospho-JNK (Pi-SAPK/JNK) ([6]; PACA-2, Z-BP for 180 minutes) | expression level of PARP [6, 9] | expression level of cPARP [6, 9] | expression level of caspase-3 [6, 9] | mRNA expression level of NOR-1 [7, 10] | mRNA expression level of Nurr1 [7, 10] | mRNA expression level of Nurr1 ([7]; PACA-2, different concentrations of Z-BP, 3 hours) |
| --- | --- | --- | --- | --- | --- | --- | --- | --- | --- | --- | --- | --- | --- | --- | --- |
| CCC/C=C1/OC(=O)c2ccccc21 [(E)-butylidenephthalide, reference compound] | ~162 µg/mL and ~864 µM | ~257 µg/mL and ~1.37 mM |  |  |  |  |  |  |  |  |  |  |  |  |  |
| CCC/C=C1\OC(=O)c2ccccc21 [(Z)-butylidenephthalide] | ~25 µg/mL and ~133 µM | ~45 µg/mL and ~234 µM | increased | increased | increased | increase the expression of Nurr1 | reduce the cellular survival rate | increased | increased | increased | increased | increased | increased | increased | increased |
